Reference: publication doi:10.1101/2025.07.11.664294 (bioRxiv, 2025)

Assays:
[1] = system: U87MG glioblastoma cells; experiment: Wound-healing scratch assay; type: cell-based, human; conditions: 50 μM peptide, 24 h, mitomycin C 3 μg/ml; wound closure by ImageJ
Procedure: The U87MG GBM cell line (U-87 MG, ATCC® HTB-14) was cultured in Dulbecco’s Modified Eagle Medium (DMEM) and appropriate growth factors at 37°C in a humidified 5% CO2 atmosphere. Cells were seeded at 40,000 cells per well in 96-well plates and allowed to adhere overnight. Then, mitomycin C (3 μg/ml) was added to inhibit further cell replication, and 50 μM Ctx and its analogs were added. Untreated wells served as a control. Wounds were created by manually scratching the cell monolayer with a 200 μL multi-channel pipette tip, and plates were analyzed at 0 h and 24 h time points using the MetaXpress image acquisition software (Molecular Devices, San Jose, CA). The ImageJ Ver. 1.54f program (NIH (National Institutes of Health) was used for image analysis. Wound closure was quantified using the Wound_Healing_Size_tool_plugin., analyzing the percentage of wound area covered by migrating cells. To determine significance, statistical analysis was performed using appropriate methods (t-test or ANOVA) using GraphPad Prism software, version 10.0.3.

[2] = system: MMP-2; experiment: MMP-2 inhibition assay (Enzo MMP-2 drug discovery kit); type: biochemical, human; conditions: NNGH positive control
Procedure: The MMP-2 inhibition assay was performed using the Enzo Life Sciences MMP-2 drug discovery kit. and the quenched fluorogenic substrate OmniMMP RED. Reference substrate was diluted to a final concentration of 5 μM, while the MMP-2 enzyme was diluted to 58 mU/μL, and the N-Isobutyl-N-(4-methoxyphenylsulfonyl)glycyl hydroxamic acid (NNGH) inhibitor was diluted to a concentration of 1/200 in assay buffer. […] The assay was performed using a black 96-well microplate. Fluorescence was measured at excitation/emission wavelengths of 545/576 nm, with a cutoff at 570 nm using Gen5 microplate reader (BioTeK, Shoreline, WA). Baseline fluorescence was recorded before adding NNGH inhibitor which was used as a positive control for MMP-2 inhibition. Reaction mixtures in the plate were incubated at 37 °C for 10 min, and fluorescence was measured at 10 min intervals for the first 30 min, then at 30 min intervals until 2 h had elapsed. Percentage of inhibition of MMP-2 activity by Ctx and its analogs was calculated as percent of control. Statistical analysis was performed using ANOVA with GraphPad Prism software, version 10.0.3.

[3] = system: recombinant MMP-2; experiment: Differential scanning fluorimetry (DSF); type: binding, human; conditions: 1 μM MMP-2, 30 μM (Ctx) or 50 μM (P75 and P76) peptide, PBS pH 7.1, SYPRO-orange, average and SD of n ≥ 3
Procedure: The melting temperatures (Tm) of recombinant MMP-2 and its complexes with peptides were ascertained using BioRad CFX384 Touch real-time PCR (Hercules, CA, USA). The experiments were performed as previously described. The unfolding of the protein was detected using the fluorescent SYPRO-orange dye (Invitrogen, Carlsbad, CA, USA). MMP-2 and prospective ligand peptides were dissolved in 7.1 pH phosphate buffered saline (154 mM NaCl, 5.6 mM Na2PO4, 1.1mM KH2PO4), and the reaction mixture was made to a final concentration of 1 μM of protein, either 30 μM (Ctx) or 50 μM (P75 and P76) of peptide, and 1000x dilution of the SYPRO-Orange dye stock from the manufacturer. Excitation and emission filters of the dye were set at 450–490 nm and 560–580 nm, respectively. The temperature for the reaction was held at 25 °C for 5 min, and then a gradient of 25 °C to 95 °C was applied at a rate of 0.3 °C/min, and the fluorescence was recorded. To determine Tm of the protein, the first derivatives of melting curves were plotted using GraphPad Prism software, version 10.0.3.

[4] = target: T1, Neuropilin-1 (NRP-1) (Homo sapiens, UniProt O14786); experiment: Surface plasmon resonance (SPR); type: binding; conditions: NRP-1 immobilized on NTA chip, steady-state affinity model, peptides 500 μM to 3.90 μM, n=3, 4 replicates, read-out: dissociation constant (KD) for NRP-1
T1 construct: containing amino acid residues Phe22-Lys644, with a poly-histidine tag at the C-terminus; purchased ACROBiosystems NR1-H5228
T1 sequence (O14786 22-644 isoform O14786-2): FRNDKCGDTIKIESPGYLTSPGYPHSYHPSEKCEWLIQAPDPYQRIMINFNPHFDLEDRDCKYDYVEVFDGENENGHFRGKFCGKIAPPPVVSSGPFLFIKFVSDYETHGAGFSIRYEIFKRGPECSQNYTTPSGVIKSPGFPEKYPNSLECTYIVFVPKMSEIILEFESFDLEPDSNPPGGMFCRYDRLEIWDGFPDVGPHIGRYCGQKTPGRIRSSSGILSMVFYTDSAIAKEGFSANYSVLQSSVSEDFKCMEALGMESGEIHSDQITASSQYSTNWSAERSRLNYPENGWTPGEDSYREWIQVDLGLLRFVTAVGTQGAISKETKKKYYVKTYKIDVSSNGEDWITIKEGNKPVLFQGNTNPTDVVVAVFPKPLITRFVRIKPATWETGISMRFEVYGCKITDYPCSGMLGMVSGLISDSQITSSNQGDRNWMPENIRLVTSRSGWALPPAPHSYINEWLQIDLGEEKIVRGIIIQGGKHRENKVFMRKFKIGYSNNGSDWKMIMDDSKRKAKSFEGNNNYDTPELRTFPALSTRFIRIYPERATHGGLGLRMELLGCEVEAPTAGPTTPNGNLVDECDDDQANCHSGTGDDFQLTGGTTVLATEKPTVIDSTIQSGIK
Procedure: (§1) Surface plasmon resonance (SPR) reagents, plates, and the NTA chip were purchased from GE Healthcare Life Sciences, now Cytiva (Marlborough, MA, USA). Measurements were performed using the Biacore 8000 SPR System (Marlborough, MA. USA). The running buffer used for protein immobilization and peptide binding consisted of 20 mM Tris, 150 mM NaCl, […] and 0.0005% Tween-20, adjusted to pH 7.4. MMP-2 and NRP-1 were immobilized onto the NTA chip at 15 nM and 25 nM concentration, respectively. Peptides were injected over the immobilized proteins using two-fold serial dilutions from 500 μM to 3.90 μM. Three experiments with four replicates of each were performed. The SPR response curves generated from the Biacore Insight Evaluation Software were fitted to a steady-state affinity model to obtain an equilibrium dissociation constant (KD) for each peptide — protein interaction.

[5] = system: MMP-2; experiment: Surface plasmon resonance (SPR); type: binding, human; conditions: MMP-2 immobilized on NTA chip; peptides 500 μM to 3.90 μM; pH 7.4
Procedure: as §1

[6] = peptides at 1 μM, 50 μM and 100 μM, quenched fluorogenic substrate, one-way ANOVA

Substance	inhibition of U-87MG cell migration [1]	inhibition of MMP-2 enzymatic activity [2, 6]	Change in melting temperature ΔTm ± SD [3] [°C]	Kd [4] [µM]	binding to MMP-2 by SPR [5]	inhibition of MMP-2 enzymatic activity ([2]; Ctx at 1 μM, 5 μM, 10 μM, 15 μM and 20 μM, quenched fluorogenic substrate OmniMMP RED)
Ac-[Cyc(28,33)]Ctx(27-34)-NH2 [Peptide P78]	about 30%	not statistically significant	–	–	–	–
Ac-[Cys^26,Ser^28,33,Cyc(26,35)]Ctx(24-36)-NH2 [Peptide P76]	–	not statistically significant	0.63 ± 0.36	–	–	–
Ac-[Ser^35,Cyc(28,33)]Ctx(24-36)-NH2 [Peptide P75]	Inhibition of U-87MG cell migration	not statistically significant	0.76 ± 1.56	330 ± 146	–	–
Chlorotoxin [Ctx, reference compound]	–	not statistically significant	–	–	did not bind	did not inhibit MMP-2 activity
